Experiments:
RARα = target: T1, RARα (Homo sapiens, UniProt P10276); assay: ligand binding assay, RARα
T1 sequence (P10276 1-462): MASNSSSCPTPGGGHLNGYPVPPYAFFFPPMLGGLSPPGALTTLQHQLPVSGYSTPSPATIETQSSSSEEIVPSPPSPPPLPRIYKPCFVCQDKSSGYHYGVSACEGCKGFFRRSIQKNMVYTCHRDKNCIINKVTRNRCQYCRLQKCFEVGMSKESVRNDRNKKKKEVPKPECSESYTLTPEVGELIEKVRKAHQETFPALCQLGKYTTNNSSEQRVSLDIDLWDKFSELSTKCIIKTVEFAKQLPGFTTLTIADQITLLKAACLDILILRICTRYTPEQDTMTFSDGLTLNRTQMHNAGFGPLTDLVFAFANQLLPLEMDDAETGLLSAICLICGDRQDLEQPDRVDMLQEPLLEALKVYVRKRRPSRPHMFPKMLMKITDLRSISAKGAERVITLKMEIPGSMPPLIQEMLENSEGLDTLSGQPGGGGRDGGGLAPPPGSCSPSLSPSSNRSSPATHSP

RARβ [1] = target: T2, RARβ (Homo sapiens, UniProt P10826); assay: ligand binding assay, RARβ
T2 sequence (P10826 1-455): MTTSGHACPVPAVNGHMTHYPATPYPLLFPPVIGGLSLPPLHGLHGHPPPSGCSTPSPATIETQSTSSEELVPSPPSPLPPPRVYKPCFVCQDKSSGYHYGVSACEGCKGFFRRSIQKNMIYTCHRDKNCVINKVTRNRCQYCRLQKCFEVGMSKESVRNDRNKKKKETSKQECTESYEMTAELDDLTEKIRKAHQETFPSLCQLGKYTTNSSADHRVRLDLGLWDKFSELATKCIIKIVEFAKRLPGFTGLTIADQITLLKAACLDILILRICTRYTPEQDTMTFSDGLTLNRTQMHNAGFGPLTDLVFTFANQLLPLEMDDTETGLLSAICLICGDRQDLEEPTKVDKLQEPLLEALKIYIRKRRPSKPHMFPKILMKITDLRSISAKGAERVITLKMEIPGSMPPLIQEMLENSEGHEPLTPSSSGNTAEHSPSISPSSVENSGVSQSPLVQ

RARγ [2] = target: T3, RARγ (Homo sapiens, UniProt P13631); assay: ligand binding assay, RARγ
T3 sequence (P13631 1-454): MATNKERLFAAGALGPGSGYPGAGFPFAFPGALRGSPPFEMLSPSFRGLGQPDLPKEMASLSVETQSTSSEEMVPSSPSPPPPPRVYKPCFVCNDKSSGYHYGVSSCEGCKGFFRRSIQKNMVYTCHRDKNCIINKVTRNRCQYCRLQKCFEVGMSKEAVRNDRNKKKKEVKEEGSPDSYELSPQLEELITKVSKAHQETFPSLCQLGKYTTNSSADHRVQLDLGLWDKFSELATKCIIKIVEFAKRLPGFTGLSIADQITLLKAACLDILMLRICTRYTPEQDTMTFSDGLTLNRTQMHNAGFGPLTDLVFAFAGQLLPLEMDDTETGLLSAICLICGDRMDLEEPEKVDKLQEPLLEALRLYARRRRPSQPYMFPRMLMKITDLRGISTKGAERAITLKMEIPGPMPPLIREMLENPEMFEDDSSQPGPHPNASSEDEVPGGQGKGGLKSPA

RXRα [3] = target: T4, RXRα (Homo sapiens, UniProt P19793); assay: ligand binding assay, RXRα
T4 sequence (P19793 1-462): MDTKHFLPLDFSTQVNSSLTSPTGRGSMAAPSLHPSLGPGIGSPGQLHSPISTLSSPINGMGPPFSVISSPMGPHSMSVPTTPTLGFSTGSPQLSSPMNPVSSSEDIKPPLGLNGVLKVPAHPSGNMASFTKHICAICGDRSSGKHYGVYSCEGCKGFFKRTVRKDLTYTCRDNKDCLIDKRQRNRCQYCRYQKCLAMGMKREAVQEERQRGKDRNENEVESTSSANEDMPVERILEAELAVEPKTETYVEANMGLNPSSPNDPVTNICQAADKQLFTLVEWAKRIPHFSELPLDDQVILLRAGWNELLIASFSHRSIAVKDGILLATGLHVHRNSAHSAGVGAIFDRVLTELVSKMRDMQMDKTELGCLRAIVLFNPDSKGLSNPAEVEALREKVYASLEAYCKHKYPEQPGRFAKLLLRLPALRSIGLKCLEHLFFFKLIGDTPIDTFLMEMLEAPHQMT

RXRβ [4] = target: T5, RXRβ (Homo sapiens, UniProt P28702); assay: ligand binding assay, RXRβ
T5 sequence (P28702 1-533): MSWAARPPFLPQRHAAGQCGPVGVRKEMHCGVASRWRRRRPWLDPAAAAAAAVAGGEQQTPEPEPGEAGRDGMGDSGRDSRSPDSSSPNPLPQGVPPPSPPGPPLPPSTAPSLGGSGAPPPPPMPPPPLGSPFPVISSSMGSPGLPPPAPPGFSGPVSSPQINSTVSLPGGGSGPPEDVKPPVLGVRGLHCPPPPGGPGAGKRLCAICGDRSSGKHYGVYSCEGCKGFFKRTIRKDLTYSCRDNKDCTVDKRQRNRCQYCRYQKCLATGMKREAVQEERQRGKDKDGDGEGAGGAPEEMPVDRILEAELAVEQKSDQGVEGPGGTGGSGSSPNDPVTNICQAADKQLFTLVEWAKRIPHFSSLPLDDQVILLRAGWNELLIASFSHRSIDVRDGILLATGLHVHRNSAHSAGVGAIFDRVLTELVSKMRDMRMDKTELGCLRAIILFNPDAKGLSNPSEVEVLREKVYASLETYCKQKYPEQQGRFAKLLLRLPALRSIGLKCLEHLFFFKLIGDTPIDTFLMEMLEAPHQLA

RXRα [5] = target: T4, RXRα; assay: holoreceptor transactivation assay, RXRα; settings: for RXR α transactivation efficacy as a percentage compared to the standard compound: value in parentheses, relative to standard compound of U.S. Pat. No. 6,114,533
RXRβ [6] = target: T5, RXRβ; assay: holoreceptor transactivation assay, RXRβ; settings: for RXR β transactivation efficacy as a percentage compared to the standard compound: value in parentheses, relative to standard compound of U.S. Pat. No. 6,114,533
RXRγ = target: T6, RXRγ (Homo sapiens, UniProt P48443); assay: holoreceptor transactivation assay, RXRγ; settings: for RXR γ transactivation efficacy as a percentage compared to the standard compound: value in parentheses, relative to standard compound of U.S. Pat. No. 6,114,533
T6 sequence (P48443 1-463): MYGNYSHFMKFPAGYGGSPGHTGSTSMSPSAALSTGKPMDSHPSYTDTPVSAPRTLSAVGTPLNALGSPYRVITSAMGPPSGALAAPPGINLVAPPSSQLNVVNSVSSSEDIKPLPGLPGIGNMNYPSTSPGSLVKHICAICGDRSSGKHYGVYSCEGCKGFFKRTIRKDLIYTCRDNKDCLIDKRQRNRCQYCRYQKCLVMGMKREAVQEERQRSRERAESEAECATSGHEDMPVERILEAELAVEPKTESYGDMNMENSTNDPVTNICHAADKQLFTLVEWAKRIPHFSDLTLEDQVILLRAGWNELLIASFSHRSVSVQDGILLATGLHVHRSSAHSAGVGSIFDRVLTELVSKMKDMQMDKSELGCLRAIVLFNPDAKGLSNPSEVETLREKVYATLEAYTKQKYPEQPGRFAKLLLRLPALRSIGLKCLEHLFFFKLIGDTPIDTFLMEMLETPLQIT

RARβ [7] = target: T7, RARβ (Homo sapiens, UniProt P10826); assay: chimeric receptor transactivation assay, RARβ; settings: for RAR β transactivation efficacy as a percentage compared to the standard compound: value in parentheses, relative to standard compound of U.S. Pat. No. 6,114,533
T7 sequence (P10826 183-417 limits assumed): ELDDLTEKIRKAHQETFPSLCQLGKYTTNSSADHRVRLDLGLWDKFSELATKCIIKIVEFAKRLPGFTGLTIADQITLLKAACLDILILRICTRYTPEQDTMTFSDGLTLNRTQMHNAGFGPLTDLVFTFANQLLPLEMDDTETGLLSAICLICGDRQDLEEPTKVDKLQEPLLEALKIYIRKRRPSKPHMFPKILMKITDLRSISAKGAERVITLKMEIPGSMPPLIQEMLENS

RARγ [8] = target: T8, RARγ (Homo sapiens, UniProt P13631); assay: chimeric receptor transactivation assay, RARγ
T8 sequence (P13631 185-419 limits assumed): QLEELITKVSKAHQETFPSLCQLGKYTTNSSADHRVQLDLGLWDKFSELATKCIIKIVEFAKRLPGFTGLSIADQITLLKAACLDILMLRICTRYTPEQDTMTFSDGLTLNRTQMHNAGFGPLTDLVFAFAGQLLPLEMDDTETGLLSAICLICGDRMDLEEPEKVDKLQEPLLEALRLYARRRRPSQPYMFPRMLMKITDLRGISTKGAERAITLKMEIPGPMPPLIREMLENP

[9] = tested on: Female diabetic db/db mice; assay: serum glucose, triglyceride and thyroxine levels in female db/db mice; settings: for Glucose Day 0 / Triglycerides Day 0: Day 0 (pre-treatment), female db/db mice, group later given standard compound 5 mg/kg or Compound 6 50 mg/kg by oral gavage; for Glucose Day 3, 3 h / Triglycerides Day 3, 3 h / Glucose Day 6, 3 h: oral gavage daily
[10] = standard compound 5 mg/kg, Compound 6 50 mg/kg

| Ki (RARα) [nM] | Ki (RARβ [1]) [nM] | Ki (RARγ [2]) [nM] | Ki (RXRα [3]) [nM] | Ki (RXRβ [4]) [nM] | EC50 (RXRα [5]) [nM] | RXR α transactivation efficacy as a percentage compared to the standard compound (RXRα [5]) [%] | EC50 (RXRβ [6]) [nM] | RXR β transactivation efficacy as a percentage compared to the standard compound (RXRβ [6]) [%] | EC50 (RXRγ) [nM] | RXR γ transactivation efficacy as a percentage compared to the standard compound (RXRγ) [%] | EC50 (RARβ [7]) [nM] | RAR β transactivation efficacy as a percentage compared to the standard compound (RARβ [7]) [%] | SMILES | Glucose Day 0 [9] [mg/dL] | Triglycerides Day 0 [9] [mg/dL] | Glucose Day 3, 3 h [9, 10] [mg/dL] | Triglycerides Day 3, 3 h [9, 10] [mg/dL] | Glucose Day 6, 3 h [9, 10] [mg/dL] | also measured |
| --- | --- | --- | --- | --- | --- | --- | --- | --- | --- | --- | --- | --- | --- | --- | --- | --- | --- | --- | --- |
| 504 | 484 | 1200 | 66 | 423 | 0.6 | 112 | 5 | 111 | 2 | 121 | 150 | 32 | COc1cc2c(cc1C(=C/C=C/C(C)=C/C(=O)O)C(F)(F)F)C(C)(C)CCC2(C)C (stereo in doubt) [Compound 5, (2E,4E,6Z)-8,8,8-Trifluoro-7-(3-methoxy-5,5,8,8-tetramethyl-5,6,7,8-tetrahydro-naphthalen-2-yl)-3-methyl-octa-2,4,6-trienoic acid] |  |  |  |  |  |  |
| 1800 | 452 | > 10000 | 22 | 115 |  |  |  |  |  |  | 54 | 9 | CCCOc1cc2c(cc1C(=C/C=C/C(C)=C/C(=O)O)C(F)(F)F)C(C)(C)CCC2(C)C (stereo in doubt) [Compound 7, (2E,4E,6Z)-8,8,8-Trifluoro-3-methyl-7-(5,5,8,8-tetramethyl-3-propoxy-5,6,7,8-tetrahydro-naphthalen-2-yl)-octa-2,4,6-trienoic acid] |  |  |  |  |  |  |
| > 10000 | 372 | > 10000 | 14 | 68 | 10 | 17 | 97 | 30 | 25 | 17 | 67 | 15 | CCOc1cc2c(cc1\C(=C/C=C/C(C)=C/C(=O)O)C(F)(F)F)C(C)(C)CCC2(C)C [Compound 6, (2E,4E,6Z)-7-(3-Ethoxy-5,5,8,8-tetramethyl-5,6,7 8-tetrahydro-naphthalen-2-yl)-8,8,8-trifluoro-3-methyl-octa-2,4,6-trienoic acid] | 561 ± 159 | 350 ± 69 | 442 ± 164 | 240 ± 192 | 483 ± 175 |  |
|  |  |  |  |  |  |  |  |  |  |  |  |  | CC(/C=C/[C@@H]1C[C@]1(C)c1ccc2c(c1)C(C)(C)CCC2(C)C)=C\C(=O)O [Standard compound] | 526 ± 135 | 290 ± 55 | 444 ± 125 | 590 ± 422 | 399 ± 128 | T4 Day 7 ([9]; Day 7, oral gavage daily for seven days, standard compound 5 mg/kg, Compound 6 50 mg/kg): 1.5 ± 0.6 µg/dL; effect on serum thyroxine levels ([9]; diabetic mammals): reducing serum thyroxine levels |

| SMILES | Ki (RARα) [nM] | Ki (RARβ [1]) [nM] | Ki (RARγ [2]) [nM] | Ki (RXRα [3]) [nM] | Ki (RXRβ [4]) [nM] | EC50 (RXRα [5]) [nM] | RXR α transactivation efficacy as a percentage compared to the standard compound (RXRα [5]) [%] | EC50 (RXRβ [6]) [nM] | RXR β transactivation efficacy as a percentage compared to the standard compound (RXRβ [6]) [%] | EC50 (RXRγ) [nM] | RXR γ transactivation efficacy as a percentage compared to the standard compound (RXRγ) [%] | EC50 (RARβ [7]) [nM] | RAR β transactivation efficacy as a percentage compared to the standard compound (RARβ [7]) [%] | Glucose Day 0 [9] [mg/dL] | Triglycerides Day 0 [9] [mg/dL] | Glucose Day 3, 3 h [9, 10] [mg/dL] | Triglycerides Day 3, 3 h [9, 10] [mg/dL] | Glucose Day 6, 3 h [9, 10] [mg/dL] | also measured |
| --- | --- | --- | --- | --- | --- | --- | --- | --- | --- | --- | --- | --- | --- | --- | --- | --- | --- | --- | --- |
| CC(/C=C/C=C(c1cc2c(cc1O)C(C)(C)CCC2(C)C)C(F)(F)F)=C\C(=O)O (stereo in doubt) [Compound 4, (2E,4E,6Z)-8,8,8-Trifluoro-7-(3-hydroxy-5,5,8,8-tetramethyl-5,6,7,8-tetrahydro-naphthalen-2-yl)-3-methyl-octa-2,4,6-trienoic acid] | 2400 | 4400 | 496 | 471 | 2600 | 9 | 65 | 67 | 54 | 16 | 69 | > 500 | ~30 |  |  |  |  |  | EC50 (RARγ [8]): > 500 nM; RAR γ transactivation efficacy as a percentage compared to the standard compound (RARγ [8]; value in parentheses, relative to standard compound of U.S. Pat. No. 6,114,533): ~30% |

Source: patent US6884820B2, “5,6,7,8-tetrahydronaphthalen-2-yl-7-fluoroalkyl-heptatrienoic acid derivatives having serum glucose reducing activity” (Allergan, Inc., priority 2003, dated 2005)
